Reference: patent US8263526B2, “Compositions of keratin hydrolysate and microbes for pest control applications” (priority 2006, dated 2012)
Like-named read-outs stand apart in the source and are kept apart here.

How the values were obtained:
Format in all cases: cell-based
[1] = test system: blastospores of Paecilomyces fumosoroseus ARSEF 3581; test: % germination assay (6-hr) of blastospores in surfactant solutions
Procedure: (§1) Blastospore suspensions (˜1×10^8 blastospores/ml) were prepared by adding 1.3 g of the dried blastospores of P. fumosoroseus formulate to 100 ml sterile deionized water. The spore suspension was stirred for 30 minutes, and then allowed to stand 1 minute to allow the diatomaceous earth to settle. Without disturbing the diatomaceous earth, 30 ml of the spore suspension was removed and transferred to a sterile bottle. The blastospore concentration of the suspension was measured using a hemacytometer.
A one ml aliquot of the previously described blastospore suspension was added to 49 ml of the foaming agents in a 250 ml baffled Erlenmeyer flask. The blastospore suspensions were incubated in a rotary shaker incubator (Innova 4000, New Brunswick) at 300 RPM and 28° C. for 6 hours. Blastospore germination was measured by microscopic observation of the germ tube formation. Four slides were prepared from the incubated blastospore suspension using separate pipets. Germ tube formation was measured for 100 blastospores on each slide. A total of 400 blastospores were counted from each flask.

[2] = test system: blastospores of Paecilomyces fumosoroseus ARSEF 3581; test: Viability assay, CFU spread plate after 1 hour exposure to surfactant; settings: in words
Procedure: as §1
For these studies, 1 ml of the previously described blastospore suspension was added to 49 ml of the foaming agents and held for 1 hour at room temperature. After the one hour exposure period, colony forming units (cfu) were determined for blastospore suspensions using standard spread plating techniques. Appropriate dilutions of blastospore suspensions were spread on SDMA (Sabouraud dextrose maltose agar) plates, 10 g Bacto peptone, 20 g Difco dextrose, 20 g Sigma maltose, and 15 g Bacto agar per 1 L water. Three plates were used for each dilution. Plates were incubated at 28° C. for 2-3 days and CFUs counted.

[3] = test system: blastospores of Paecilomyces fumosoroseus ARSEF 3581; test: Conidia production assay on water agar in the dark; settings: 2 weeks in the dark
Procedure: For the conidia production assay, 100 ul of the blastospore suspension was spread onto WA plates (Water Agar: 20 g/L water.) and incubated 2 weeks in the dark. Three plates were used for each treatment. The drop was spread with a sterile plastic spreader and incubated at 23° C. in the dark for 2 weeks. After two weeks, 5 ml of sterile water was added to each plate, and a sterile loop was used to release the conidia from the fungal growth. The spore suspension was drawn up with a pipet and the volume measured. The conidia concentration was measured using a hemacytometer. Our previous determination of the blastospore concentration in the suspension applied to the […] plates was used to calculate conidia production/blastospore.

## sodium alpha olefin sulfonate [Na alpha olefin sulfonate]
[1]
  % viability 6-hr germination: 0.0%

## CCCCCCCCCCCCCCCC[N+](C)(C)C.[Br-] [hexadecyl trimethylammonium Br, hexadecyl trimethylammonium bromide]
[1]; surfactant 0.5% (w/w), 6 hours, 28° C.
  % viability 6-hr germination: 0.0%

## sodium lauryl ether sulfate (2-mole) [Na Lauryl ether sulfate (2-mole)]
[1]
  % viability 6-hr germination: 0.0%

## Triton x-100
[1]; 6-hr germination assay, in words
  germination of blastospores relative to the water-only control: strongly inhibited
[2]
  cfu formation relative to the water control: comparable or better cfu formation than the water control
[3]; surfactant 0.5% (w/w)
  conidia production (conidia/blastospore): 95 conidia/blastospore
[3]; surfactant 1.0% (w/w)
  conidia production (conidia/blastospore): 57 conidia/blastospore
[3]; surfactant 2.0% (w/w)
  conidia production (conidia/blastospore): 27 conidia/blastospore
